# Test system: NO production
# Assay: NO production in LPS-treated Raw 264.7 macrophages (Griess reagent)
# Format: cell-based, mouse
# Procedure: In order to confirm the effect of the compound of Example 1 of the present invention on NO production in Raw 264.7 mouse macrophages in which inflammatory response was induced by LPS, an experiment was performed as follows.
# Raw 264.7 mouse macrophages were aliquoted in a 96-well plate at the density of 1×10^5 cells/well and stabilized in a 37° C., 5% CO2 incubator for 24 hours. The Raw 264.7 cells were treated with the compound of Example 1 by concentration. After 1 hour, the cells were treated with 1 ug/ml of LPS and cultured for 24 hours. For the measurement of NO production, 40 mg/ml of Griess reagent was prepared and it was mixed with the culture supernatant at the same ratio. The mixture was reacted at room temperature for 15 minutes, and absorbance was measured at 540 nm. Based on the results obtained therefrom, the cell viability and NO production rate were expressed as percentages in terms of LPS.
compound,measurement,setting,value
"[O-][S+](c1ccc(F)cc1)c1nccc2ccccc12 (centres unmarked) [Example 1, 1-((4-Fluorophenyl)Sulfinyl)Isoquinoline]",NO production (% of control),"1 ug/ml LPS, 24 hours, Raw 264.7 cells, test concentration not given",40 % of control
same,NO production,"LPS-treated Raw 264.7, 0.1, 0.5, 1, 10 and 100 μM, effect increased with concentration (FIG. 3)",inhibited
